“Also recorded” adds a separate entry of the source.
How the values were obtained:
SYK(S550F) = biological target: T1, SYK(S550F) (Homo sapiens, UniProt P43405, S550F); experiment: PhosphoSens SOX peptide kinase activity assay, SYK(S550F); assay type: biochemical; conditions: purified protein, 1 mM ATP
T1 construct: The full-length SYK GoF variants SYK(S550F) and SYK(P342T) along with SYK(WT) were purified from insect cells (Sf9); 6His (N, cleaved yes); GST (N, cleaved yes); made in house; host or cells: Sf9 insect cells (baculovirus, pFastbac1)

[1] = system: kinases of the KINOMEscan panel; conditions: ref Sgc et al., 2024; cited from earlier work
SYK(P342T)-NL [2] = biological target: T2, SYK(P342T)-NL (Homo sapiens, UniProt P43405, P342T); experiment: NanoBRET cellular target engagement assay in intact live HEK293 cells, SYK(P342T)-NL; assay type: cell-based
T2 construct: host or cells: HEK293
Method: (§1) NL orientations used in the respective assays are indicated. […] Plates were incubated for 25 min at room temperature if digitonin was added or for 2 h at 37°C in 5% CO2 for the intact cell NanoBRET assay. […] For intact live cells in a 96-well plate, the 3X stock solution was prepared with 30 μL of NanoBRET NanoGlo substrate, 10 μL of extracellular NanoLuc inhibitor, and 4,960 μL of Opti-MEM without phenol red. For digitonin permeabilized live cells in a 96-well plate, the 3X stock solution was prepared with 30 μL of NanoBRET NanoGlo substrate and 4,970 μL of Opti-MEM without phenol red. Raw milliBRET units (mBU) were read on a GloMax Discover system (Promega) with a donor emission wavelength of 450 nm and an acceptor emission wavelength of 600 nm. mBU were calculated by dividing the acceptor emission values (600 nm) by the donor emission values (450 nm). For NanoBRET studies with SYK, background corrected mBU were calculated by subtracting the no tracer wells from the tracer-containing wells and multiplying by 1,000.
(§2) MRL-SYKi was used to compete away the NanoBRET signal produced with tracer 8. […] Tracer 8 was prepared in DMSO and DMEM without phenol red in 11-point dose-response format with 3 μM as the top concentration, with a final assay plate concentration of 1% DMSO. 10X stock solutions of MRL-SYKi were prepared from 10 mM DMSO stock solution with room temperature Opti-MEM without phenol red, for final assay plate concentrations of 10 μM. 10 μL of 8 (10X) was added to each well, with the exception of the no tracer control wells, and 10 μL of 10X solutions of MRL-SYKi was added to wells for tracer competition. One biological replicate was plotted in GraphPad Prism with [inhibitor] vs response (three parameters).
(§3) MRL-SYKi was tested in 11-point dose–response format with a top concentration of 10 μM. […] The final assay plate concentrations included 1% DMSO. 5 μL of 8 (20X) was added to each well, except the no tracer control wells, and 10 μL of 10X threefold diluted solutions of MRL-SYKi was added to wells. Two biological replicates were plotted in GraphPad Prism with log[inhibitor] vs response (three parameters) with the error bars indicating standard deviation.
(§4) Compounds were tested in 11-point dose–response format with a top concentration of 10 μM. Data are reported as IC50 ± standard error mean (SEM). One biological replicate was plotted in GraphPad Prism with log[inhibitor] vs response (three parameters), the three IC50’s were averaged and the SEM was calculated.

[3] = ref Altman et al., 2011; cited from earlier work
SYK = biological target: T3, SYK (Homo sapiens, UniProt P43405); experiment: Eurofins DiscoverX SYK enzymatic radiometric assay; assay type: biochemical; conditions: Km value for ATP, 9-pt dose-response
T3 construct: purchased Eurofins DiscoverX (contract assay service)
Description: Eurofins kinase enzymatic radiometric assays were executed at the Km value for ATP in dose–response (9-pt curve) format for SYK, included in Table 1 as enzymatic IC50 values.

[4] = system: GPCR scan and panel of 113 enzymes and receptors; conditions: at 10 μM; ref Sgc et al., 2024; cited from earlier work
SYK(S550Y)-NL [5] = biological target: T4, SYK(S550Y)-NL (Homo sapiens, UniProt P43405, S550Y); experiment: NanoBRET cellular target engagement assay in intact live HEK293 cells, SYK(S550Y)-NL; assay type: cell-based; conditions: for IC50: tracer titration
T4 construct: host or cells: HEK293
Method: as §1, §2, §3, §4

SYK(A353T)-NL = biological target: T5, SYK(A353T)-NL (Homo sapiens, UniProt P43405, A353T); experiment: NanoBRET assay in digitonin permeabilized HEK293 cells, SYK(A353T)-NL; assay type: cell-based; conditions: fixed concentration of tracer 8, average ± SEM, read-out: IC50, SYK(variant)-NL A353T
T5 construct: host or cells: HEK293
Method: (§5) We performed NanoBRET tracer optimization to determine if the SYK tracers could effectively generate a BRET signal. […] To enable the NanoBRET assay using tracer 8 with cells permeabilized by digitonin, a tracer dose–response study was performed for each SYK(GoF) variant and SYK(WT) (Figure 3A), followed by tracer titration experiments (Figure 3B; Supplementary Figure S3). […] Initially, we determined the EC50 of tracer 8 for each SYK(GoF) variant and SYK(WT). […] Plates were incubated for 25 min at room temperature if digitonin was added or for 2 h at 37°C in 5% CO2 for the intact cell NanoBRET assay. […] For intact live cells in a 96-well plate, the 3X stock solution was prepared with 30 μL of NanoBRET NanoGlo substrate, 10 μL of extracellular NanoLuc inhibitor, and 4,960 μL of Opti-MEM without phenol red. […] Raw milliBRET units (mBU) were read on a GloMax Discover system (Promega) with a donor emission wavelength of 450 nm and an acceptor emission wavelength of 600 nm. mBU were calculated by dividing the acceptor emission values (600 nm) by the donor emission values (450 nm). For NanoBRET studies with SYK, background corrected mBU were calculated by subtracting the no tracer wells from the tracer-containing wells and multiplying by 1,000. […]

SYK(WT)-NL = biological target: T6, SYK(WT)-NL (Homo sapiens, UniProt P43405); experiment: NanoBRET assay in digitonin permeabilized HEK293 cells, SYK(WT)-NL; assay type: cell-based; conditions: fixed concentration of tracer 8, average ± SEM, read-out: IC50, SYK(variant)-NL WT
T6 construct: SYK tracers enable BRET with full-length SYK(WT) after digitonin permeabilization; host or cells: HEK293
Method: We performed NanoBRET tracer optimization to determine if the SYK tracers could effectively generate a BRET signal. […] To enable the NanoBRET assay using tracer 8 with cells permeabilized by digitonin, a tracer dose–response study was performed for each SYK(GoF) variant and SYK(WT) (Figure 3A), followed by tracer titration experiments (Figure 3B; Supplementary Figure S3). […] Initially, we determined the EC50 of tracer 8 for each SYK(GoF) variant and SYK(WT). […] Plates were incubated for 25 min at room temperature if digitonin was added or for 2 h at 37°C in 5% CO2 for the intact cell NanoBRET assay. […] For intact live cells in a 96-well plate, the 3X stock solution was prepared with 30 μL of NanoBRET NanoGlo substrate, 10 μL of extracellular NanoLuc inhibitor, and 4,960 μL of Opti-MEM without phenol red. For digitonin permeabilized live cells in a 96-well plate, the 3X stock solution was prepared with 30 μL of NanoBRET NanoGlo substrate and 4,970 μL of Opti-MEM without phenol red. Raw milliBRET units (mBU) were read on a GloMax Discover system (Promega) with a donor emission wavelength of 450 nm and an acceptor emission wavelength of 600 nm. mBU were calculated by dividing the acceptor emission values (600 nm) by the donor emission values (450 nm). For NanoBRET studies with SYK, background corrected mBU were calculated by subtracting the no tracer wells from the tracer-containing wells and multiplying by 1,000.
HEK293 cells were transfected with constructs of SYK(WT) or SYK(KD) tagged with NL on the C- or N-terminus and SYK GoF variants tagged with NL on the C-terminus. Tracer 8 (20X) was prepared from a 400 μM stock solution in DMSO with tracer dilution buffer (Promega, #N291B) and 20% DMSO, with a final assay plate concentration of 1% DMSO. 5 μL of 8 (20X) was added to each well, with exception of the no tracer control wells, with final plate concentrations of 0.5, 1, and 2 μM. 10 μL of digitonin (Fisher, 10X, 500 μg/mL) was added to specific wells to permeabilize the cells. The 10X digitonin stock was prepared by diluting a 40X DMSO solution of digitonin with room temperature Opti-MEM without phenol red, for a final assay plate concentration of 1% DMSO. SYK inhibitor stock solutions of MRL-SYKi (10X) were prepared from 10 mM DMSO stock solutions with room temperature Opti-MEM without phenol red, for final assay plate concentrations of 10 μM. Plates were incubated for 25 min at room temperature if digitonin was added or for 2 h at 37°C in 5% CO2 for the intact cell NanoBRET assay. Two technical replicates were plotted in a bar chart with the standard deviation represented as error bars on Graphpad Prism.

SYK(S550F)-NL [6] = biological target: T7, SYK(S550F)-NL (Homo sapiens, UniProt P43405, S550F); experiment: NanoBRET cellular target engagement assay in intact live HEK293 cells, SYK(S550F)-NL; assay type: cell-based
T7 construct: host or cells: HEK293
Method: as §1, §2, §3, §4

SYK(P342T) = biological target: T8, SYK(P342T) (Homo sapiens, UniProt P43405, P342T); experiment: PhosphoSens SOX peptide kinase activity assay, SYK(P342T); assay type: biochemical; conditions: purified protein, 1 mM ATP
T8 construct: The full-length SYK GoF variants SYK(S550F) and SYK(P342T) along with SYK(WT) were purified from insect cells (Sf9); 6His (N, cleaved yes); GST (N, cleaved yes); made in house; host or cells: Sf9 insect cells (baculovirus, pFastbac1)

SYK(S550Y)-NL [7] = biological target: T4, SYK(S550Y)-NL; experiment: NanoBRET assay in digitonin permeabilized HEK293 cells, SYK(S550Y)-NL; assay type: cell-based; conditions: fixed concentration of tracer 8, average ± SEM, read-out: IC50, SYK(variant)-NL S550Y
Method: as §5

SYK(P342T)-NL [8] = biological target: T2, SYK(P342T)-NL; experiment: NanoBRET assay in digitonin permeabilized HEK293 cells, SYK(P342T)-NL; assay type: cell-based; conditions: fixed concentration of tracer 8, average ± SEM, read-out: IC50, SYK(variant)-NL P342T
Method: as §5

[9] = system: pSYK(Y525/526) in SW480 cells stably expressing SYK(S550Y); experiment: SYK phosphorylation western blot in SW480 cells stably expressing SYK(S550Y); assay type: cell-based
Method: SW480 cells stably expressing S550Y variant were maintained as previously described ([Wang et al., 2021]). For SYK S550Y inhibition, cells were seeded in 12-well plate, at 10^6 cells/well. The next day, medium was replaced and MRL-SYK inhibitor was added at 10 μM and 100 nM for 20 h. Protein lysates were prepared and analyzed on Western blot as previously described ([Wang et al., 2021]).

[10] = system: SRC, NTRK1, NTRK3, FGR, FYN, FER, and JAK2; conditions: ref Sgc et al., 2024; cited from earlier work
SYK(S550F)-NL [11] = biological target: T7, SYK(S550F)-NL; experiment: NanoBRET assay in digitonin permeabilized HEK293 cells, SYK(S550F)-NL; assay type: cell-based; conditions: fixed concentration of tracer 8, average ± SEM, read-out: IC50, SYK(variant)-NL S550F
Method: as §5

SYK(M450I)-NL = biological target: T9, SYK(M450I)-NL (Homo sapiens, UniProt P43405, M450I); experiment: NanoBRET assay in digitonin permeabilized HEK293 cells, SYK(M450I)-NL; assay type: cell-based; conditions: fixed concentration of tracer 8, average ± SEM, read-out: IC50, SYK(variant)-NL M450I
T9 construct: host or cells: HEK293
Method: as §5

## Cc1cc(Nc2nccc(C)n2)cc(-c2cnc([C@@]3(O)CC[C@H](C(=O)O)C(C)(C)C3)s2)c1 [MRL-SYKi]
SYK(S550F)
  IC50: 63 nM
[1]
  selectivity versus the protein kinase family in the KINOMEscan panel: greater than 30 fold
SYK(P342T)-NL [2]; intact HEK293 cells, 125 nM tracer 8, average of triplicate ± SEM, read-out: SYK(P342T) IC50
  IC50: 410 ± 95 nM
SYK(P342T)-NL [2]; linearized Cheng-Prusoff analysis, y-intercept, tracer 8, single experiment, read-out: KD, app SYK(P342T)
  Kd: 179 nM
SYK(P342T)-NL [2]; tracer titration, [Tracer] 15.6 nM, read-out: IC50, SYK(P342T)-NL + 8 + MRL-SYKi
  IC50: 134 nM
SYK(P342T)-NL [2]; tracer titration, [Tracer] 31.2 nM, read-out: IC50, SYK(P342T)-NL + 8 + MRL-SYKi
  IC50: 194 nM
SYK(P342T)-NL [2]; tracer titration, [Tracer] 62.5 nM, read-out: IC50, SYK(P342T)-NL + 8 + MRL-SYKi
  IC50: 371 nM
SYK(P342T)-NL [2]; tracer titration, [Tracer] 125 nM, read-out: IC50, SYK(P342T)-NL + 8 + MRL-SYKi
  IC50: 365 nM
SYK(P342T)-NL [2]; tracer titration, [Tracer] 250 nM, read-out: IC50, SYK(P342T)-NL + 8 + MRL-SYKi
  IC50: 498 nM
[3]
  cellular activity: < 100 nM
SYK
  IC50: 30 nM
[4]
  off-target inhibition: no off-target inhibition
SYK(S550Y)-NL [5]; linearized Cheng-Prusoff analysis, y-intercept, tracer 8, single experiment, read-out: KD, app SYK(S550Y)
  Kd: 27 nM
SYK(S550Y)-NL [5]; [Tracer] 7.8 nM, read-out: IC50, SYK(S550Y)-NL + 8 + MRL-SYKi
  IC50: 27 nM
SYK(S550Y)-NL [5]; [Tracer] 15.6 nM, read-out: IC50, SYK(S550Y)-NL + 8 + MRL-SYKi
  IC50: 27 nM
SYK(S550Y)-NL [5]; [Tracer] 31.2 nM, read-out: IC50, SYK(S550Y)-NL + 8 + MRL-SYKi
  IC50: 32 nM
SYK(S550Y)-NL [5]; [Tracer] 62.5 nM, read-out: IC50, SYK(S550Y)-NL + 8 + MRL-SYKi
  IC50: 42 nM
SYK(S550Y)-NL [5]; [Tracer] 125 nM, read-out: IC50, SYK(S550Y)-NL + 7 + MRL-SYKi
  IC50: 41 nM
SYK(S550Y)-NL [5]; [Tracer] 125 nM, read-out: IC50, SYK(S550Y)-NL + 8 + MRL-SYKi
  IC50: 74 nM
SYK(S550Y)-NL [5]; [Tracer] 250 nM, read-out: IC50, SYK(S550Y)-NL + 7 + MRL-SYKi
  IC50: 54 nM
SYK(S550Y)-NL [5]; [Tracer] 500 nM, read-out: IC50, SYK(S550Y)-NL + 7 + MRL-SYKi
  IC50: 98 nM
SYK(S550Y)-NL [5]; [Tracer] 1000 nM, read-out: IC50, SYK(S550Y)-NL + 7 + MRL-SYKi
  IC50: 220 nM
SYK(A353T)-NL
  IC50: 10 ± 5 nM
SYK(WT)-NL
  IC50: 10 nM
SYK(S550F)-NL [6]; intact HEK293 cells, 125 nM tracer 8, average of triplicate ± SEM, read-out: SYK(S550F) IC50
  IC50: 250 ± 48 nM
SYK(S550F)-NL [6]; linearized Cheng-Prusoff analysis, y-intercept, tracer 8, single experiment, read-out: KD, app SYK(S550F)
  Kd: 46 nM
SYK(S550F)-NL [6]; tracer titration, [Tracer] 7.8 nM, read-out: IC50, SYK(S550F)-NL + 8 + MRL-SYKi
  IC50: 29 nM
SYK(S550F)-NL [6]; tracer titration, [Tracer] 15.6 nM, read-out: IC50, SYK(S550F)-NL + 8 + MRL-SYKi
  IC50: 44 nM
SYK(S550F)-NL [6]; tracer titration, [Tracer] 31.2 nM, read-out: IC50, SYK(S550F)-NL + 8 + MRL-SYKi
  IC50: 77 nM
SYK(S550F)-NL [6]; tracer titration, [Tracer] 62.5 nM, read-out: IC50, SYK(S550F)-NL + 8 + MRL-SYKi
  IC50: 98 nM
SYK(S550F)-NL [6]; tracer titration, [Tracer] 125 nM, read-out: IC50, SYK(S550F)-NL + 8 + MRL-SYKi
  IC50: 157 nM
SYK(S550F)-NL [6]; tracer titration, [Tracer] 250 nM, read-out: IC50, SYK(S550F)-NL + 8 + MRL-SYKi
  IC50: 190 nM
SYK(P342T)
  IC50: 95 nM
SYK(S550Y)-NL [7]
  IC50: 2.1 ± 1 nM
SYK(P342T)-NL [8]
  IC50: 4.6 ± 2.6 nM
[9]; 100 nM for 20 h
  pSYK(Y525/526) levels via Western blot compared to untreated cells: decrease in pSYK(Y525/526) levels; also recorded: decreased pSYK(Y525/526) levels
[9]; 10 μM for 20 h
  pSYK(Y525/526) levels via Western blot compared to untreated cells: decrease in pSYK(Y525/526) levels
[10]
  off-target kinases less potent than SYK: ≥ 111 fold
SYK(S550F)-NL [11]
  IC50: 14 ± 5 nM
SYK(M450I)-NL
  IC50: 29 ± 6 nM

— article PMC13089524, “Development of SYK NanoBRET cellular target engagement assays for gain–of–function variants” (Frontiers in chemical biology, 2024)
